pIC50: −log10 of the molar value. The source made the active and inactive calls. The rule behind the calls is not given here.
Columns and labels:
[1] = biological target: T1, Serine/threonine-protein kinase haspin (Homo sapiens, UniProt Q8TF76)
T1 sequence (Q8TF76 whole entry): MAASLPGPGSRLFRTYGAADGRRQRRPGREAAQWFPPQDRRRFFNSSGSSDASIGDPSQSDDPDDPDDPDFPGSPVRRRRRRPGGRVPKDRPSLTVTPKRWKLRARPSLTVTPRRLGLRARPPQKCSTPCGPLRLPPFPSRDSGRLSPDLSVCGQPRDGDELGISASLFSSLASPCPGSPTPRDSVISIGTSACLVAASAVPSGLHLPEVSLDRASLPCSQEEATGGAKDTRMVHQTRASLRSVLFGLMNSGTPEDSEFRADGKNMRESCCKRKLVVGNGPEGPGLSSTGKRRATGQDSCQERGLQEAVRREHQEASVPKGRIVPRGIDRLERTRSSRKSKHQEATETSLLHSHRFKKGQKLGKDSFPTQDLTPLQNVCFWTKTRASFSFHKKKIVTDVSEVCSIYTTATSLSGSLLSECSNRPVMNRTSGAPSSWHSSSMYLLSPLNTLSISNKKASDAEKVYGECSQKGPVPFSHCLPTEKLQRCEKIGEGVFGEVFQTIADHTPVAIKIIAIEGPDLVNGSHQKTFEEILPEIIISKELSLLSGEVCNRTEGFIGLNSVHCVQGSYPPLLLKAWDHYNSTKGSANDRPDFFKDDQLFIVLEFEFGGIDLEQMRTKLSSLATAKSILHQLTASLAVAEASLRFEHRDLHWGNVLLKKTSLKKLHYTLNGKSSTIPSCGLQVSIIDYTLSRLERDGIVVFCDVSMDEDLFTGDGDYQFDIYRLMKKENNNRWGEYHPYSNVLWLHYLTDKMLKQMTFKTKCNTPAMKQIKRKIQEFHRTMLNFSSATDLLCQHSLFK

[2] = biological target: T2, Dual specificity tyrosine-phosphorylation-regulated kinase 2 (Homo sapiens, UniProt Q92630)
T2 sequence (Q92630 whole entry): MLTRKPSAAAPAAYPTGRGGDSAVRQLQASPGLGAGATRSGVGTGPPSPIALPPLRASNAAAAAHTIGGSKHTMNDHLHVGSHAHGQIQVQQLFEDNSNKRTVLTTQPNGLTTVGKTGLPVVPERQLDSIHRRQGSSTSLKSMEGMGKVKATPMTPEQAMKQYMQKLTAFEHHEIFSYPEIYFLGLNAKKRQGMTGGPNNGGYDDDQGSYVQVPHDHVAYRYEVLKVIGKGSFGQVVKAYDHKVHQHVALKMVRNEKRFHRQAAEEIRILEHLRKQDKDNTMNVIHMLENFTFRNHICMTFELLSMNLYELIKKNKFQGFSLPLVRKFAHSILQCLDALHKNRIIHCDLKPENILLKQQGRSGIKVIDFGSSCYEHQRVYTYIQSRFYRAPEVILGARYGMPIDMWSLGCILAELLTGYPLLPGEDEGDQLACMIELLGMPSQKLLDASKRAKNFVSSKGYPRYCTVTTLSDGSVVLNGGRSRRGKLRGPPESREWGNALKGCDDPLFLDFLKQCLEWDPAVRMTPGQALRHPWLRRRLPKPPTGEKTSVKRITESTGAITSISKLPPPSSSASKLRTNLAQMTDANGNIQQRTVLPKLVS

[3] = biological target: Serine/threonine-protein kinase haspin (Homo sapiens) (UniProt Q8TF76); assay: Inhibition of human recombinant N-terminal MBP-tagged haspin kinase expressed in Escherichia coli DE3 at 10 uM after 10 mins by TR-FRET assay
[4] = biological target: T2, Dual specificity tyrosine-phosphorylation-regulated kinase 2; assay: Inhibition of DYRK2

Compound	pIC50 [1]	pIC50 [2]	inhibition [3]	pIC50 [4]
COc1ccc2c3ccnc(C)c3n(CCCCN(C)C)c2c1	6.33	< 5.00		
Cc1nccc2c3ccc(OC(C)(C)C)cc3n(CCCCN)c12	5.34	< 5.00		
CNCCCCn1c2cc(OC)ccc2c2ccnc(C)c21	6.47	< 5.00		
COc1ccc2c3ccncc3n(CCCCN)c2c1	6.52	< 5.00		
COc1ccc2c3ccnc(C)c3n(CCCCN)c2c1Cl	6.08	5.10		
Cc1nccc2c1[nH]c1cc(OCCCCN)ccc12			inactive	
COc1ccc2c3ccnc(C)c3n(CCCCN)c2c1	6.77	< 5.00		
CCc1nccc2c3ccc(OC)cc3n(CCCCN)c12	6.72	< 5.00		
COc1cccc2c3ccnc(C)c3n(CCCCN)c12	6.66	< 5.00		
Cc1nccc2c1[nH]c1cc(OCCCN)ccc12			inactive	
COc1ccc2c(c1)[nH]c1c(C)nccc12 [HARMINE]				6.16
COc1cccc2c1c1ccnc(C)c1n2CCCCN	5.57	5.15		
COc1ccc2c(c1)c1ccnc(C)c1n2CCCCN	5.62	5.31		
Cc1nccc2c3ccc(O)cc3n(CCCCN)c12	6.80	< 5.00		
COc1ccc2c3ccnc(C(C)C)c3n(CCCCN)c2c1	6.34	< 5.00		
Cc1nccc2c3cc4c(cc3n(CCCCN)c12)OCO4	6.30	5.32		
NCCCCn1c2cc(O)ccc2c2ccnc(C(F)(F)F)c21	6.66	5.07		
Cc1nccc2c3ccc(NS(C)(=O)=O)cc3n(CCCCN)c12	6.16	< 5.00		
Cc1nccc2c3ccc(F)cc3n(CCCCN)c12	6.24	< 5.00		
Cc1[nH]ccc2c1[nH]c1cc(=O)ccc12 [HARMOL]	6.11			5.82

Reference: ChEMBL document CHEMBL2010722, “Structure-activity relationship study of beta-carboline derivatives as haspin kinase inhibitors” (Bioorg Med Chem Lett, 2012)
